According to US6461997B1, “Triazole sulfones having herbicidal activity” (Monsanto Technology LLC, priority 1999, dated 2002):

Key:
[1] = test system: PANMI (wild proso millet); test: Pre-emergence herbicidal activity, warm season; format: in vivo, Panicum miliaceum; conditions: GR80 = lowest tested rate (300, 100, 30, 10 g/ha) with 80% or greater inhibition; approx. 14 days after treating; 30/21° C.
Outline: (§1)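 Each pot received seeds on sterilized fertilized topsoil, a soil cover, and a surface spray of compound (300–10 g/ha, acetone/water 50:50). Plants grew about 14 days at 30/21 °C (PANMI, DIGSA) or 18/13 °C (ALOMY, POLCO) before inhibition was rated against untreated pots to give GR80.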

[2] = test system: BRAPP (broadleaf signalgrass); test: Pre-emergence herbicidal activity, warm season; format: in vivo, Brachiaria platyphylla; conditions: GR80 = lowest tested rate (300, 100, 30, 10 g/ha) with 80% or greater inhibition; approx. 14 days after treating; 30/21° C.
Outline: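 GR80 values derive from percent inhibition relative to untreated plants, read roughly 14 days after sowing and pre-emergence soil-surface treatment (compound in 50:50 acetone/water; rates typically 10, 30, 100, 300 g/ha). Warm-season weeds grew at 30/21° C day/night, cool-season ones at 18/13° C; an asterisk marks activity without reaching 80% at the highest rate.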

[3] = test system: AGSST (creeping bentgrass); test: Pre-emergence herbicidal activity, cool season; format: in vivo, Agrostis stolonifera; conditions: GR80 = lowest tested rate (300, 100, 30, 10 g/ha) with 80% or greater inhibition; approx. 14 days after treating; 18/13° C.
Outline: (§2)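 Seeds sown in sterilised fertilised topsoil received surface-applied compound in 50:50 acetone/water, typically at 300, 100, 30 and 10 g/ha, then greenhouse-grown at 30/21° C (warm-season species) or 18/13° C (cool-season species). Percent inhibition versus untreated plants was scored at about 14 days, giving GR80; an asterisk marks activity short of 80% at the top rate.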

SETVI (green foxtail) = test: Pre-emergence herbicidal activity, cool season; format: in vivo, Setaria viridis; conditions: GR80 = lowest tested rate (300, 100, 30, 10 g/ha) with 80% or greater inhibition; approx. 14 days after treating; 18/13° C.
Outline: as §2

LOLMG (annual ryegrass) = test: Pre-plant incorporated (PPI) herbicidal activity, cool season; format: in vivo, Lolium multiflorum
Outline: (§3)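 Greenhouse PPI test with treated cover soil over seeds; % inhibition vs untreated at about 14 days.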

DIGSA (large crabgrass) [4] = test: Pre-plant incorporated (PPI) herbicidal activity, warm season; format: in vivo, Digitaria sanguinalis
Outline: as §3

[5] = test system: GALAP (catchweed bedstraw); test: Pre-plant incorporated (PPI) herbicidal activity, cool season; format: in vivo, Galium aparine
Outline: as §3

DIGSA (large crabgrass) [6] = test: Pre-emergence herbicidal activity, warm season; format: in vivo, Digitaria sanguinalis; conditions: GR80 = lowest tested rate (300, 100, 30, 10 g/ha) with 80% or greater inhibition; approx. 14 days after treating; 30/21° C.
Outline: as §1

POAAN (annual bluegrass) = test: Pre-plant incorporated (PPI) herbicidal activity, cool season; format: in vivo, Poa annua; conditions: weed, PPI application
Outline: as §3

[7] = test system: AEGCY (jointed goatgrass); test: as above; format: in vivo, Aegilops cylindrica
Outline: as §3

[8] = test system: AGRRE (quackgrass (seedling)); test: as above; format: in vivo, Elymus repens
Outline: as §3

AMARE (redroot pigweed) = test: Pre-emergence herbicidal activity, warm season; format: in vivo, Amaranthus retroflexus; conditions: GR80 = lowest tested rate (300, 100, 30, 10 g/ha) with 80% or greater inhibition; approx. 14 days after treating; 30/21° C.
Outline: as §2

POROL (common purslane) = test: Pre-emergence herbicidal activity, warm season; format: in vivo, Portulaca oleracea; conditions: GR80 = lowest tested rate (300, 100, 30, 10 g/ha) with 80% or greater inhibition; approx. 14 days after treating; 30/21° C.
Outline: as §2

[9] = weed, PPI application, 100 g/ha
[10] = weed, PPI application, 300 g/ha
[11] = weed, PPI application, 900 g/ha
[12] = pre-plant incorporated, lowest tested rate with 80% or greater inhibition, about 14 days

CCN(CC)C(=O)n1cnc(S(=O)(=O)C(F)(F)F)n1 [Example 2]
Pre-emergence activity (GR80) PANMI [1]: 30 g/ha
Pre-emergence activity (GR80) BRAPP [2]: 300 g/ha
Pre-emergence activity (GR80) AGSST [3]: 30 g/ha
Pre-emergence activity (GR80) SETVI (SETVI (green foxtail)): 30 g/ha
Percent inhibition LOLMG (LOLMG (annual ryegrass); weed, PPI application, 30 g/ha): 40%
Percent inhibition LOLMG (LOLMG (annual ryegrass); [9]): 99%
Percent inhibition LOLMG (LOLMG (annual ryegrass); [10]): 100%
Percent inhibition LOLMG (LOLMG (annual ryegrass); [11]): 100%
Percent inhibition DIGSA (DIGSA (large crabgrass) [4]; PPI application, 30 g/ha): 85%
Percent inhibition DIGSA (DIGSA (large crabgrass) [4]; PPI application, 100 g/ha): 99%
Percent inhibition DIGSA (DIGSA (large crabgrass) [4]; PPI application, 300 g/ha): 90%
Percent inhibition DIGSA (DIGSA (large crabgrass) [4]; PPI application, 900 g/ha): 100%
Percent inhibition GALAP ([5]; weed, PPI application, 30 g/ha): 60%
Percent inhibition GALAP [5, 9]: 100%
Percent inhibition GALAP [5, 10]: 100%
Percent inhibition GALAP [5, 11]: 100%
Pre-emergence activity (GR80) DIGSA (DIGSA (large crabgrass) [6]): 300 g/ha
Percent inhibition POAAN (POAAN (annual bluegrass); 30 g/ha): 80%
Percent inhibition POAAN (POAAN (annual bluegrass); 100 g/ha): 100%
Percent inhibition POAAN (POAAN (annual bluegrass); 300 g/ha): 100%
Percent inhibition POAAN (POAAN (annual bluegrass); 900 g/ha): 100%
Percent inhibition AEGCY ([7]; weed, PPI application, 30 g/ha): 0%
Percent inhibition AEGCY [7, 9]: 20%
Percent inhibition AEGCY [7, 10]: 20%
Percent inhibition AEGCY [7, 11]: 70%
Percent inhibition AGRRE ([8]; weed, PPI application, 30 g/ha): 0%
Percent inhibition AGRRE [8, 9]: 0%
Percent inhibition AGRRE [8, 10]: 30%
Percent inhibition AGRRE [8, 11]: 60%
Pre-emergence activity (GR80) AMARE (AMARE (redroot pigweed)): 30 g/ha
Pre-emergence activity (GR80) POROL (POROL (common purslane)): 100 g/ha

CCSC(F)(F)S(=O)(=O)c1ncn(C(=O)N(CC)CC)n1 [Example 8, 1-(N,N-diethylcarbamoyl)-3-[difluoro(ethylthio)methylsulfonyl]-1,2,4-triazole]
Pre-emergence activity (GR80) PANMI [1]: 100 g/ha
Pre-emergence activity (GR80) BRAPP [2]: 100 g/ha
Pre-emergence activity (GR80) AGSST [3]: 30 g/ha
Pre-emergence activity (GR80) SETVI (SETVI (green foxtail)): 100 g/ha
inhibition at 30 g/ha (LOLMG (annual ryegrass); Lolium multiflorum, weed, PPI application, 30 g/ha, read-out: Percent inhibition LOLMG): 35%
inhibition at 100 g/ha (LOLMG (annual ryegrass); Lolium multiflorum, weed, PPI application, 100 g/ha, read-out: Percent inhibition LOLMG): 100%
inhibition at 300 g/ha (LOLMG (annual ryegrass); Lolium multiflorum, weed, PPI application, 300 g/ha, read-out: Percent inhibition LOLMG): 100%
inhibition at 900 g/ha (LOLMG (annual ryegrass); Lolium multiflorum, weed, PPI application, 900 g/ha, read-out: Percent inhibition LOLMG): 100%
PPI activity GR80, LOLMG (LOLMG (annual ryegrass); [12]): 100 g/ha
inhibition at 30 g/ha (DIGSA (large crabgrass) [4]; Digitaria sanguinalis, PPI application, 30 g/ha, read-out: Percent inhibition DIGSA): 100%
inhibition at 100 g/ha (DIGSA (large crabgrass) [4]; Digitaria sanguinalis, PPI application, 100 g/ha, read-out: Percent inhibition DIGSA): 100%
inhibition at 300 g/ha (DIGSA (large crabgrass) [4]; Digitaria sanguinalis, PPI application, 300 g/ha, read-out: Percent inhibition DIGSA): 100%
inhibition at 900 g/ha (DIGSA (large crabgrass) [4]; Digitaria sanguinalis, PPI application, 900 g/ha, read-out: Percent inhibition DIGSA): 100%
PPI activity GR80, DIGSA (DIGSA (large crabgrass) [4]; [12]): 30 g/ha
inhibition at 30 g/ha ([5]; Galium aparine, weed, PPI application, 30 g/ha, read-out: Percent inhibition GALAP): 0%
inhibition at 100 g/ha ([5]; Galium aparine, weed, PPI application, 100 g/ha, read-out: Percent inhibition GALAP): 100%
inhibition at 300 g/ha ([5]; Galium aparine, weed, PPI application, 300 g/ha, read-out: Percent inhibition GALAP): 100%
inhibition at 900 g/ha ([5]; Galium aparine, weed, PPI application, 900 g/ha, read-out: Percent inhibition GALAP): 100%
PPI activity GR80, GALAP [5, 12]: 100 g/ha
Pre-emergence activity (GR80) DIGSA (DIGSA (large crabgrass) [6]): 100 g/ha
inhibition at 30 g/ha (POAAN (annual bluegrass); Poa annua, 30 g/ha, read-out: Percent inhibition POAAN): 100%
inhibition at 100 g/ha (POAAN (annual bluegrass); Poa annua, 100 g/ha, read-out: Percent inhibition POAAN): 100%
inhibition at 300 g/ha (POAAN (annual bluegrass); Poa annua, 300 g/ha, read-out: Percent inhibition POAAN): 100%
inhibition at 900 g/ha (POAAN (annual bluegrass); Poa annua, 900 g/ha, read-out: Percent inhibition POAAN): 100%
inhibition at 30 g/ha ([7]; Aegilops cylindrica, weed, PPI application, 30 g/ha, read-out: Percent inhibition AEGCY): 0%
inhibition at 100 g/ha ([7]; Aegilops cylindrica, weed, PPI application, 100 g/ha, read-out: Percent inhibition AEGCY): 50%
inhibition at 300 g/ha ([7]; Aegilops cylindrica, weed, PPI application, 300 g/ha, read-out: Percent inhibition AEGCY): 40%
inhibition at 900 g/ha ([7]; Aegilops cylindrica, weed, PPI application, 900 g/ha, read-out: Percent inhibition AEGCY): 20%
PPI activity GR80, AEGCY [7, 12]: [empty]
inhibition at 30 g/ha ([8]; Elymus repens, weed, PPI application, 30 g/ha, read-out: Percent inhibition AGRRE): 0%
inhibition at 100 g/ha ([8]; Elymus repens, weed, PPI application, 100 g/ha, read-out: Percent inhibition AGRRE): 40%
inhibition at 300 g/ha ([8]; Elymus repens, weed, PPI application, 300 g/ha, read-out: Percent inhibition AGRRE): 70%
inhibition at 900 g/ha ([8]; Elymus repens, weed, PPI application, 900 g/ha, read-out: Percent inhibition AGRRE): 100%
PPI activity GR80, AGRRE [8, 12]: 300 g/ha
Pre-emergence activity (GR80) AMARE (AMARE (redroot pigweed)): 100 g/ha
Pre-emergence activity (GR80) POROL (POROL (common purslane)): 300 g/ha
